Entries after “also recorded” stand apart in the source; their conditions may differ. Read-outs that look alike come from different tables or passages of the source.
Legend:
[1] = tested on: A-427 human pulmonary cancer cells; assay: MTT test, proliferation of A-427; conditions: for activity at 0.01 µM / activity at 1 µM / activity at 100 µM: Homo sapiens, A-427, 72 h, read-out: level of proliferation; for effect on cellular increase, A-427 (in words): MTT test
Gal4-RARγ = assay: Transactivation, chimerical receptor Gal4-RARγ (transitory transfection of HeLa); format: cell-based; conditions: 100% = TTNPB 10^-8 M
Gal4-RARα = assay: Transactivation, chimerical receptor Gal4-RARα (transitory transfection of HeLa); format: cell-based; conditions: 100% = TTNPB 10^-8 M
T-47D cells = assay: Effect on oestrogen-induced proliferation of T-47D cells; format: cell-based, human; conditions: for activity at 1 µM: 10^-6 M, 100% = E2 10^-9 M, read-out: growth of T-47D cells
[2] = tested on: response element RARE of RARβ gene, endogenic retinoic receptors, HRLN lineage; assay: HRLN transactivation (RARE-luciferase, stably transfected HeLa); format: cell-based; conditions: for Emax / EC50: Homo sapiens, HeLa; for Emax: read-out: HRLN transactivation, E max; for EC50: concentrations from 1 nM to 1 μM
Protocol: MCF-7 cells and HeLa are cultivated in DMFM with phenol red to which 5% foetal calf serum is added. The T47-D cells are cultivated in RPMI to which 10% foetal calf serum is added. The experimental tests are carried out in DMEM without phenol red to which foetal calf serum treated with dextran carbon is added at 3%. […] The experiments using the different retinoids are carried out sheltered from the light so as to avoid any isomerisation.
Certain properties of the retinoids have been determined using more developed cellular models. These models consist of cellular lineages transfected in a stable fashion by recombinant plasmids which place the expression of the gene of the luciferase under the control of different nuclear response elements. […] The tests carried out in duplicate are described below for each of these models.
The cellular lineages HRLN and HRL+N allow one to study the activation of an RARE by endogenic receptors using ligands at physiological concentrations. These lineages derive from HeLa cells transfected in a stable fashion by a reporter gene which places the expression of the gene of the luciferase under the control of a nuclear response element RARE (RARE3 -tk-Luc). The HeLa cells express all the known receptors of the retinoic acid (RARα,β,γ and RXRα,β,γ) with a predominance of RARα and RXRα. The response element RARE used for the HRLN cells corresponds to the sequence of the natural gene of the RARβ receptor (GGTTCAnnnnnAGTTCA). The HRL+N cells comprise the sequence GAGTGAnnnnnCGGTGA.
This lineage comprises the response element RARE of the natural gene of the RARβ receptor which controls the expression of the gene of the luciferase.

[3] = tested on: ERE-βGlob-Luc, MELN lineage (MCF-7); assay: Anti-oestrogenic effect, MELN lineage activated by estradiol; format: cell-based, human; conditions: for inhibition: 10^-6 M; for anti-oestrogenic effect (in words): estradiol-activated MELN cells
Outline: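 Run in duplicate on estradiol-activated (10^-9 M) MELN cells, MCF-7 stably transfected with ERE-βGlobin-luciferase reporter. Values are percentages of the estradiol response after deducting basal level, defined by 1 μM hydroxytamoxifen.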

[4] = tested on: Gal4-RAR (RARα, RARβ, RARγ); assay: Chimerical receptors Gal4-RAR, overall profile; format: cell-based
[5] = tested on: AP-1, MTLN lineage (MCF-7); assay: Anti-AP-1 effect, MTLN lineage activated by TPA; format: cell-based, human; conditions: for inhibition at 1 µM / inhibition at 0.1 µM / inhibition at 0.01 µM: Homo sapiens; for inhibition at 1 µM: 10^-6 M; for anti-AP-1 effect (in words): TPA-activated MTLN cells
Outline: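 Percent inhibition of AP-1-driven luciferase after basal activity deduction, expressed as a range across repeat experiments. Cells: MTLN, an MCF-7 line stably transfected with p(TRE)3-tk-Luc and stimulated with 10^-7 M TPA; tests in duplicate.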

[6] = tested on: A549 human pulmonary cancer cells; assay: MTT test, proliferation of A549; format: cell-based; conditions: for activity at 100 µM / activity at 1 µM / activity at 0.01 µM: Homo sapiens, read-out: level of proliferation; for effect on cellular increase, A549 (in words): MTT test
[7] = Homo sapiens, T47D, 168 h, 7 days
[8] = Homo sapiens, MCF7, cells activated by 10^-9 M estradiol
[9] = Homo sapiens, MCF7, 10^-7 M, cells activated by 10^-9 M estradiol, read-out: anti-oestrogenic effect, inhibition
[10] = MCF7, cells activated by 10^-7 M TPA, range of several experiments
[11] = MCF7, 10^-7 M, cells activated by 10^-7 M TPA, range of several experiments, read-out: anti-AP-1 effect, inhibition
[12] = A549, 10^-4 M, 72 h, control = 100%
[13] = A549, 10^-6 M, 72 h, control = 100%
[14] = A549, 10^-8 M, 72 h, control = 100%
[15] = Homo sapiens, MCF7, read-out: anti-oestrogenic effect, inhibition
[16] = MCF7, read-out: anti-AP-1 effect, inhibition
[17] = Homo sapiens, MCF7, 10^-8 M, cells activated by 10^-9 M estradiol, read-out: anti-oestrogenic effect, inhibition

| SMILES | activity at 0.01 µM [1] | activity at 1 µM [1] | activity at 100 µM [1] | GAL4-RAR RARα transactivation (Gal4-RARα; 10^-7 M) | Emax [2] | inhibition [3, 8] | inhibition at 0.1 µM [3, 9] | Gal-RAR agonist profile (in words) [4] | inhibition at 1 µM [5, 10] | anti-AP-1 effect (in words) [5] | activity at 100 µM [6, 12] | activity at 1 µM [6, 13] | activity at 0.01 µM [6, 14] | GAL4-RAR RARα transactivation (Gal4-RARα; 10^-6 M) | HRLN transactivation (in words) [2] | inhibition at 0.1 µM [3, 15] | anti-oestrogenic effect (in words) [3] | inhibition at 0.01 µM [5, 16] | inhibition at 0.1 µM [5, 16] | effect on cellular increase, A549 (in words) [6] | also measured |
| --- | --- | --- | --- | --- | --- | --- | --- | --- | --- | --- | --- | --- | --- | --- | --- | --- | --- | --- | --- | --- | --- |
| C/C(=C/c1ccc2c(c1)C(C)(C)CCC2(C)C)c1ccc(C(=O)O)cc1 [CB28628, reference compound] | 86.7% | 86.8% | 2.5% | 103% | 98% | 29 to 41% | 31% | completely agonistic for the three types of RAR receptors | 58% | exhibits a strong anti-AP-1 effect on the MCF-7 cells | 12.4% | 93.4% | 109% | – | – | – | – | – | – | – | GAL4-RAR RARγ transactivation (Gal4-RARγ; 10^-7 M): 106%; activity at 1 µM (T-47D cells; [7]): 33%; inhibition of growth (of the order of) (T-47D cells; estradiol 10^-9 M, 7 days): ~70%; inhibition at 0.1 µM [5, 11]: 40% |
| CC1=C(/C=C/C(C)=C/C=C/C(C)=C/C(=O)O)C(C)(C)CCC1 [CB16178, all-trans retinoic acid, reference compound] | – | 68.2% | 1.5% | 102% | – | – | – | good RAR agonists | – | – | – | – | – | 108% | induce a dose-dependent activation | 35% | reduces the cellular growth and the expression of oestrogen-dependent genes | 22 to 33% | 28 to 44% | inhibit the proliferation of the A549 lineage at 10^-6 M and 10^-8 M | GAL4-RAR RARα transactivation (Gal4-RARα; 10^-8 M): 82%; activity at 0.01 µM ([6]; A549, 72 h): 78.8%; activity at 1 µM ([6]; A549, 72 h): 89.2%; activity at 100 µM ([6]; A549, 72 h): 22.3% |
| CC1(C)CCC(C)(C)c2cc(/C=C(\c3ccc(-c4nnn[nH]4)cc3)C(F)(F)F)ccc21 [CB77402, (E) 5-[4-[1-trifluoromethyl-2-(5,6,7,8-tetrahydro-5,5,8,8-tetramethyl-2-naphthalenyl)-1-ethenyl]phenyl]-1H-tetrazole] | 82.3% | 77.6% | 0.2% | – | 18% | 0% | – | not RAR agonists | 30 to 33% | anti-AP-1 molecules through RXR; also recorded: additive nature of the anti-AP-1 inhibitor effect | 10.7% | 86% | 93.1% | 6% | very feebly active | – | inactive | – | – | show activity on the increase of these two lineages | effect on cellular increase, A-427 (in words) [1]: show activity on the increase of these two lineages; GAL4-RAR RARγ transactivation (Gal4-RARγ; 10^-6 M): 0%; inhibition at 0.1 µM [5, 11]: 21 to 23% |
| C/C(=C\c1ccc2c(c1)C(C)(C)CCC2(C)C)c1ccc(C(=O)Nc2nnn[nH]2)cc1 [CB73364] | 92.7% | 87.2% | 0.1% | – | 89% | 20 to 41% | 24% | – | – | – | 0% | 151% | 156% | – | – | – | – | – | – | a stimulation of the cellular increase | effect on oestrogen-induced growth, T-47D (in words) (T-47D cells; estradiol 10^-9 M): exerts an effect comparable to TTNPB; EC50 [2]: 33 nM; inhibition at 0.01 µM [3, 17]: 13% |
| C/C(=C\c1ccc(C(=O)O)cc1)c1ccc2c(c1)C(C)(C)CCC2(C)C [TTNPB, reference compound] | 78.9% | 78.5% | 3.6% | – | – | – | – | good RAR agonists | – | – | – | – | – | – | – | – | – | 26 to 53% | 29 to 54% | – | effect on cellular increase, A-427 (in words) [1]: inhibits the A-427 lineage at 10^-6 M and 10^-8 M; effect on oestrogen-induced growth, T-47D (in words) (T-47D cells; estradiol 10^-9 M): stronger inhibiting effect than the natural ligands (all-trans RA and 9-cis RA) and than LGD1069; inhibition at 0.01 µM [3, 15]: 30 to 41%; anti-oestrogenic effect, inhibition (of the order of) ([3]; MELN, estradiol 10^-9 M): ~40% |
| C/C(=C\c1cc2c(cc1C)C(C)(C)CCC2(C)C)c1ccc(C(=O)O)cc1 [CB71802] | 69.7% | 65.6% | 1% | – | 76% | 32 to 48% | 37% | – | – | – | 12.5% | 86.3% | 80.9% | – | – | – | – | – | – | inhibits the increase of these two pulmonary lineages the most strongly | effect on cellular increase, A-427 (in words) [1]: inhibits the increase of these two pulmonary lineages the most strongly; inhibition at 1 µM (T-47D cells; Homo sapiens, T47D, 168 h, 1 μM (10^-6 M), 7 days, estradiol 10^-9 M, read-out: percentage inhibition of growth, T-47D): 72%; EC50 [2]: 31.4 ± 16.9 nM; inhibition at 0.01 µM [3, 17]: 5% |
| C/C(=C/c1ccc2c(c1)C(C)(C)CCC2(C)C)c1ccc(C(=O)O)nc1 [CB16279, (Z) 5-[1-(5,6,7,8-tetrahydro-5,5,8,8-tetramethyl-2-naphthalenyl)-2-propenyl]pyridinyl-2-carboxylic acid] | – | – | – | – | – | 32% | – | partial agonists at 1 μM for the three RAR receptors | 23 to 26% | – | – | – | – | 33% | induce a transactivation close to that of TTNPB | – | permit a transrepression of a controlled gene by an ERE | – | – | – | GAL4-RAR RARγ transactivation (Gal4-RARγ; 10^-6 M): 59%; activity at 1 µM (T-47D cells; [7]): 84% |
| CC(C=C/C=C(C)\C=C\C1=C(C)CCCC1(C)C)=CC(=O)O [CB13407, 9-cis retinoic acid, reference compound] | – | – | 5.9% | – | – | – | – | – | – | – | – | – | – | – | induce a dose-dependent activation | 35% | – | 30 to 37% | – | – | IC50 (T-47D cells; Homo sapiens, T47D, 168 h, read-out: anti-proliferation effect, T-47D IC50): 25.1 ± 1.4 nM; activity at 0.01 µM ([6]; A549, 72 h): 104%; activity at 1 µM ([6]; A549, 72 h): 102%; activity at 100 µM ([6]; A549, 72 h): 38% |
| Cc1cc2c(cc1C(=O)c1ccc(C(=O)O)cc1)C(C)(C)CCC2(C)C [LGD-CB14499, reference compound] | – | – | – | 4% | – | – | – | – | – | causes an inhibition of the AP-1 route | – | – | – | 17% | – | 0% | inactive | – | 17 to 30% | – | GAL4-RAR RARγ transactivation (Gal4-RARγ; 10^-6 M): 13%; GAL4-RAR RARγ transactivation (Gal4-RARγ; 10^-7 M): 0%; GAL4-RAR RARγ transactivation (Gal4-RARγ; 10^-8 M): 0%; GAL4-RAR RARα transactivation (Gal4-RARα; 10^-8 M): 1%; inhibition at 1 µM [3, 15]: 0% |
